From patent publication US20230233640A1, “ANTIVIRAL PREPARATION FROM CHESTNUT SHELLS OF CASTANEA SATIVA MILL” (Micronature S.R.L., priority 2019, published 2023)
Where two headings read alike, the source gives them in different places.

How the values were obtained:
[1] = Cytotoxicity in MT-4 cells (MTT); assay type: cell-based; conditions: human
Text: (§1) Cell lines were purchased from American Type Culture Collection (ATCC). The absence of mycoplasma contamination was checked periodically by the Hoechst staining method. Cell lines supporting the multiplication of RNA viruses were the following: CD4+ human T-cells containing an integrated HTLV-1 genome (MT-4); Madin Darby Bovine Kidney (MDBK) [ATCC CCL 22 (NBL-1) Bos Taurus]; Baby Hamster Kidney (BHK-21) [ATCC CCL 10 (C-13) Mesocricetus auratus], Vero cells (CCL-81; American Type Culture Collection, Manassas, VA, USA)
(§2) Cytotoxicity assays were run in parallel with antiviral assays.
Exponentially growing MT-4 cells were seeded at an initial density of 1 × 10^5 cells/ml in 96-well plates in RPMI-1640 medium, supplemented with 10% fetal bovine serum (FBS), 100 units/mL penicillin G and 100 µg/mL streptomycin. Cell cultures were then incubated at 37° C. in a humidified, 5% CO2 atmosphere, in the absence or presence of serial dilutions of test compounds. Cell viability was determined after 96 hrs at 37° C. by the 3-(4,5-dimethylthiazol-2-yl)-2,5-diphenyl-tetrazolium bromide (MTT) method (Pauwels et al. 1988).

[2] = Cytotoxicity in VERO cells; assay type: cell-based; conditions: reference marked * (µM)
Text: as §2

MDBK cells = assay: Cytotoxicity in MDBK cells (MTT); assay type: cell-based, Bos Taurus; conditions: reference marked * (µM)
Text: as §1, §2
MDBK cells were seeded in 96-well plates at an initial density of 6 × 10^5 and 1 × 10^6 cells/mL, respectively, in Minimum Essential Medium with Earle’s salts (MEM-E), L-glutamine, 1 mM sodium pyruvate and 25 mg/L kanamycin, supplemented with 10% horse serum (MDBK). Cell cultures were then incubated at 37° C. in a humidified, 5% CO2 atmosphere in the absence or presence of serial dilutions of test compounds. Cell viability was determined after 72 hrs at 37° C. by the MTT method. […] Vero cells (1 × 10^6) were plated in 6-well multiwells and incubated the next day with the substance at the same concentrations used in the antiviral assays. […]

BVDV = assay type: cell-based, bovine viral diarrhoea virus (BVDV) strain NADL; conditions: reference marked * (µM); 50% protection of MDBK cells; read-out: In vitro efficacy EC50 BVDV

O=C1Nc2ccc(Cl)cc2[C@@](C#CC2CC2)(C(F)(F)F)O1 [EFV, Efavirenz]
CC50 at 96 h [1]: 40 µM

CC[C@H](C)[C@H](NC(=O)[C@H](C)NC(=O)[C@H](CCC(=O)O)NC(=O)[C@H](CCC(=O)O)NC(=O)[C@H](CC(C)C)NC(=O)[C@H](CCCCN)NC(=O)[C@H](CCCCN)NC(=O)[C@H](CCSC)NC(=O)[C@H](CCC(=O)O)NC(=O)[C@H](Cc1ccc(O)cc1)NC(=O)[C@H](CCC(=O)O)NC(=O)[C@H](CC(C)C)NC(=O)[C@H](CC(=O)O)NC(=O)[C@H](CC(C)C)NC(=O)[C@H](Cc1ccccc1)NC(=O)[C@@H](NC(=O)[C@@H](NC(=O)[C@H](CC(N)=O)NC(=O)[C@@H](NC(=O)[C@H](CCC(N)=O)NC(=O)[C@H](CC(=O)O)NC(=O)[C@H](CC(C)C)NC(=O)[C@@H](N)CO)[C@@H](C)CC)C(C)C)[C@@H](C)O)C(=O)N[C@@H](CCCCN)C(=O)N[C@@H](CCCCN)C(=O)N[C@@H](CC(C)C)C(=O)N[C@@H](CCC(=O)O)C(=O)N[C@@H](CCC(=O)O)C(=O)N[C@@H](CO)C(=O)N[C@@H](Cc1ccc(O)cc1)C(=O)N[C@H](C(=O)N[C@@H](CC(=O)O)C(=O)N[C@@H](CC(C)C)C(=O)N[C@@H](CCCCN)C(=O)N[C@@H](CCC(=O)O)C(=O)N[C@@H](CC(C)C)C(=O)O)[C@@H](C)CC [EK1]
CC50 [2]: > 100 µM | EC50 (SARS-CoV-2): 5.4 µM

C[C@@]1(O)[C@H](O)[C@@H](CO)O[C@H]1n1cnc2c(=O)[nH]c(N)nc21 [NM 108]
CC50 (MDBK cells): > 100 µM | EC50 (BVDV): 1.6 µM

Enfuvirtide
In vitro efficacy EC50 HIV-1 (HIV-1): 0.017 µg/mL

enfuvirtide
CC50 at 96 h ([1]; mock-infected MT-4 cells, viability reduced by 50%, MTT method, read-out: Cytotoxicity in MT-4 cells CC50): > 100 µg/mL
